Patent publication US20260272907A1, “Therapeutic Tyrosine Kinase Inhibitors for Multiple Sclerosis” (Principia Biopharma Inc., priority 2022, published 2026)

Columns and labels:
[1] = tested on: patients with relapsing multiple sclerosis; experiment: Long-term safety extension: number of new Gd-enhancing T1-hyperintense lesions (MRI); type: in vivo, human; conditions: for Number of new Gd-enhancing lesions, mean±SD: LTS W96
Protocol: In the current open-label extension Part B, all patients receive 60 mg/day. MRI outcomes include numbers of new Gd-enhancing and new/enlarging T2 lesions, T2 lesion volume change from baseline, slowly evolving lesions (SEL), and paramagnetic rim lesions (PRL).
The Week 0 value is from the last MRI obtained in the dose-finding study if performed within 6 weeks prior to Day 1 of the long-term safety study For some patients the Week 0 value began after a gap period ranging from 0-21 weeks. For patients where the gap period was 0 weeks, the Week 0 value began immediately after the completion of Week 16 of the dose-finding study. For patients where the gap period was greater than 6 weeks a new MRI was obtained prior to Day 1 of the long-term safety study.
If from Week 16 of the dose-finding study (Cohort 2), it is also included in Week 12. If from Week 16 of the dose-finding study (Cohort 1), it is after 4 weeks placebo run out.

CYP2C8 = molecular target: T1, CYP2C8 (Homo sapiens, UniProt P10632); experiment: Preclinical drug metabolism studies: CYP2C8; type: in vitro ADME
T1 sequence (P10632 1-490): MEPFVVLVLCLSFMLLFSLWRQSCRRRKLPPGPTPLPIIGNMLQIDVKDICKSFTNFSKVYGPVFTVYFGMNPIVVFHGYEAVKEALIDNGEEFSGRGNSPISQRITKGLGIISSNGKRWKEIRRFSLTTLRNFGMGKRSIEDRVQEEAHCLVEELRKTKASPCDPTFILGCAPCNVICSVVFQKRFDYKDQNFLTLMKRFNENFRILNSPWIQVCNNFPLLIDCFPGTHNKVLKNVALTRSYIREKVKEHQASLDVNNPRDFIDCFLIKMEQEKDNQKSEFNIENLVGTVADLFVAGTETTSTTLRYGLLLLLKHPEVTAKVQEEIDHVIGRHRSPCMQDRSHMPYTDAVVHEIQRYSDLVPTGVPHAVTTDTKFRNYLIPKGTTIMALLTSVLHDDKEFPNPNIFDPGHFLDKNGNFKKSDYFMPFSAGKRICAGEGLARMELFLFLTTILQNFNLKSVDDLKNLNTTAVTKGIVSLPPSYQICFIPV
Text: See Table 12 for the list of drugs not to be used.

[2] = tested on: patients with relapsing multiple sclerosis; experiment: Phase 2b trial: incidence of MS relapse during placebo run-out after tolebrutinib; type: in vivo, human
Text: Unscheduled assessment visits for a suspected multiple sclerosis relapse: Participants are instructed to immediately report new neurological symptoms and recurring or worsening of previous symptoms to the Investigator. Any reported symptoms are to be collected. If a participant reports symptoms that may be consistent with relapse, an unscheduled assessment visit with the Investigator is scheduled as soon as possible (whenever possible within 7 days of onset of the symptoms). The Investigator assesses whether the reported episode is consistent with the definition of MS relapse (see Example 1.6B). If it is consistent with the definition of MS relapse or if there is any doubt and relapse cannot be ruled out, an EDSS assessment should be performed. Unscheduled visit activities are detailed in SoA (Table 1), they need to be adapted, if other pathology than MS is cause for it, and additional examinations or laboratory tests are needed for safety follow up and optimal treatment decisions.
Multiple sclerosis relapse: For the purposes of this study, MS relapse is defined as acute, new neurological symptoms or worsening of previous neurological symptoms with an objective change on neurological examination. Symptoms must: • Be attributable to MS • Last for >24 hours, and • Be present at normal body temperature (i.e., no infection, excessive exercise, or excessively high ambient temperature)
METHODS: As described in Examples 1 and 2, the 16-week, double-blind, crossover trial randomized 130 patients with RMS (1:1:1:1) to tolebrutinib 5, 15, 30, or 60 mg/day. […]
OUTCOMES: The outcomes evaluated in this example include measuring the incidence of relapse during 4-week placebo run-in and run-out, the number of new Gd-enhancing T1 lesions detected with magnetic resonance imaging (MRI) at Weeks 4, 8 and 16, the number of new or enlarging T2 lesions measured at Weeks 4, 8 and 16, and the plasma CD19+B-cell count measured in the placebo run-out cohort at baseline, 1 hour after the first dose, then at Week 12 and Week 16 (FIG. 3).

[3] = Cohort 1 (all doses), 4-week placebo run-out after 12 weeks of tolebrutinib

C=CC(=O)N1CCC[C@@H](n2c(=O)n(-c3ccc(Oc4ccccc4)cc3)c3c(N)nccc32)C1 [the BTK inhibitor, (R)-1-(1-acryloylpiperidin-3-yl)-4-amino-3-(4-phenoxyphenyl)-1H-imidazo[4,5-c]pyridin-2(3H)-one]
Number of new GD-enhancing T1-Hyperintense lesions, Mean (SD) ([1]; 5/60 mg, Week 0): 1.13 (2.66) | Number of new GD-enhancing T1-Hyperintense lesions, Median ([1]; 5/60 mg, Week 0): 0.00 | Number of new GD-enhancing T1-Hyperintense lesions, Mean (SD) ([1]; 5/60 mg, Week 12): 1.03 (2.57) | Number of new GD-enhancing T1-Hyperintense lesions, Median ([1]; 5/60 mg, Week 12): 0.00 | Number of new Gd-enhancing lesions, mean±SD ([1]; 5/60-mg arm): 0.85±2.5 | Number of new GD-enhancing T1-Hyperintense lesions, Mean (SD) ([1]; 15/60 mg, Week 0): 1.00 (1.88) | Number of new GD-enhancing T1-Hyperintense lesions, Median ([1]; 15/60 mg, Week 0): 0.00 | Number of new GD-enhancing T1-Hyperintense lesions, Mean (SD) ([1]; 15/60 mg, Week 12): 0.80 (1.49) | Number of new GD-enhancing T1-Hyperintense lesions, Median ([1]; 15/60 mg, Week 12): 0.00 | Number of new Gd-enhancing lesions, mean±SD ([1]; 15/60-mg arm): 0.41±0.91 | Number of new GD-enhancing T1-Hyperintense lesions, Mean (SD) ([1]; 30/60 mg, Week 0): 1.68 (4.29) | Number of new GD-enhancing T1-Hyperintense lesions, Median ([1]; 30/60 mg, Week 0): 0.00 | Number of new GD-enhancing T1-Hyperintense lesions, Mean (SD) ([1]; 30/60 mg, Week 12): 0.78 (3.36) | Number of new GD-enhancing T1-Hyperintense lesions, Median ([1]; 30/60 mg, Week 12): 0.00 | Number of new Gd-enhancing lesions, mean±SD ([1]; 30/60-mg arm): 0.90±2.16 | Number of new GD-enhancing T1-Hyperintense lesions, Mean (SD) ([1]; 60/60 mg, Week 0): 0.35 (0.61) | Number of new GD-enhancing T1-Hyperintense lesions, Median ([1]; 60/60 mg, Week 0): 0.00 | Number of new GD-enhancing T1-Hyperintense lesions, Mean (SD) ([1]; 60/60 mg, Week 12): 0.13 (0.43) | Number of new GD-enhancing T1-Hyperintense lesions, Median ([1]; 60/60 mg, Week 12): 0.00 | Number of new Gd-enhancing lesions, mean±SD ([1]; 60/60-mg arm): 0.31±0.66 | Number of new GD-enhancing T1-Hyperintense lesions, Mean (SD) ([1]; All (N = 125), Week 0): 1.04 (2.72) | Number of new GD-enhancing T1-Hyperintense lesions, Median ([1]; All (N = 125), Week 0): 0.00 | Number of new GD-enhancing T1-Hyperintense lesions, Mean (SD) ([1]; All (N = 125), Week 12): 0.69 (2.27) | Number of new GD-enhancing T1-Hyperintense lesions, Median ([1]; All (N = 125), Week 12): 0.00 | Substrate of CYP2C8 isoenzyme (CYP2C8): substrate | Patients relapse-free during the placebo run-out [2, 3]: 98.4% | Relapses during the placebo run-out [2, 3]: 1 | Rebound disease activity after discontinuation ([2]; patients with RMS, 4-week placebo run-out, preliminary findings): does not induce rebound disease activity
